Laboratory results as given in PMC8909834, “An Orally Bioavailable and Highly Efficacious Inhibitor of CDK9/FLT3 for the Treatment of Acute Myeloid Leukemia” (Cancers, 2022).

What was measured:
Assay in all cases: Kinase Hotspot radiolabel assay
Format in all cases: biochemical
Details in all cases: read-out: % Residual Activity
SGK3/SGKL = target: T1, SGK3/SGKL (Homo sapiens, UniProt Q96BR1)
T1 construct: purchased Reaction Biology Corporation (Kinase HotSpot)
Experimental: (§1) Kinase assay. The ADP Glo^TM kinase assay (Promega, Madison, WI, USA) was used to assess the inhibition by CDDD11-8 of CDKs 1, 2, 4, 6, 7, and 9, as well as the mutant isoforms of FLT3. The assays were performed in accord with the manufacturer’s protocol (Promega) as described previously. Briefly, serial three-fold dilutions of CDDD11-8 were prepared in 100% DMSO from a 2 mM stock solution, followed by 1:40 dilution into Milli-Q water. Subsequently, 1 µL of each sample was incubated with 4 µL of kinase mixture containing a particular CDK enzyme and its substrate, standard kinase buffer [3 mM MgCl2, 50 mM HEPES-NaOH pH 7.5, 3 mM MnCl2, 3 µM Na-orthovanadate, 1 mM dithiothreitol (DTT)], kinase dilution buffer (containing 0.25 mg/mL PEG20,000, 50 mM HEPES-NaOH pH 7.5, 1 mM DTT), and ATP at 37 °C for 30 to 40 min. The final reaction mixture contained 0.5% DMSO in all samples, and the applied kinase concentrations were 1, 1, 10, 40, 20, and 50 nM for CDK1, 2, 4, 6, 7, and 9, respectively. The reaction was stopped by adding ADP-Glo reagent and the mixture was incubated further in the dark at room temperature for 40 min. As a final step, kinase detection reagent was added to each mixture and incubated at room temperature for 30 to 60 min. Luminescence was read using an EnVision® multilabel plate reader (PerkinElmer, Beaconsfield, UK), and half-maximum inhibitory concentrations (IC50) were calculated using a non-linear regression model with a variable slope, plotting log (inhibitor concentration) vs. response using the following formula: Ar%=Bottom+Top−Bottom/1+Inhibitor Concentration/IC50^HillSlope where the relative activity Ar (%) is the signal relative to the controls, IC50 is the half maximum concentration, Hillslope is the steepness of the dose-response curve, Top and Bottom are plateaus reflecting the maximum and minimum in responses on the Y-axis (GraphPad Prism version 7, San Diego, CA, USA). Ki values were calculated from the IC50 using the Cheng−Prusoff equation [32]. Extensive specificity assessment was carried out by Reaction Biology Corporation (Malvern, PA, USA) with 369 kinases using 1 µM CDDD11-8 concentration in a Kinase Hotspot radiolabel assay (for experimental details, please see (Reaction Biology https://www.reactionbiology.com/). Subsequently, Ki values were determined for kinases with greater than 90% inhibition.

MST4 = target: T2, MST4 (Homo sapiens, UniProt Q9P289)
T2 construct: purchased Reaction Biology Corporation (Kinase HotSpot)
T2 sequence (Q9P289 whole entry): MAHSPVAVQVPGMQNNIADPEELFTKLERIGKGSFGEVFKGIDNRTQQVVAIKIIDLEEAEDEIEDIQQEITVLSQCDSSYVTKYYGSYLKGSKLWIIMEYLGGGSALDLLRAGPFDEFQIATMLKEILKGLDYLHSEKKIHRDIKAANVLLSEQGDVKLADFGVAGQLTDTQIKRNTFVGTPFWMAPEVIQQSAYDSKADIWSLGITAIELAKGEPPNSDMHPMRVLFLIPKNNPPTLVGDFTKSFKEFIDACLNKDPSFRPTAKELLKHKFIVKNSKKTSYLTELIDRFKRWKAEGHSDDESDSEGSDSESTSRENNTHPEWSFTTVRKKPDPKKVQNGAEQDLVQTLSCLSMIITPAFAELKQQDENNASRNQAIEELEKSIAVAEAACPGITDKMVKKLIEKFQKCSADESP
Experimental: as §1

TYRO3/SKY = target: T3, TYRO3/SKY (Homo sapiens, UniProt Q06418)
T3 construct: purchased Reaction Biology Corporation (Kinase HotSpot)
Experimental: as §1

ITK = target: T4, ITK (Homo sapiens, UniProt Q08881)
T4 construct: purchased Reaction Biology Corporation (Kinase HotSpot)
Experimental: as §1

CK2a2 = target: T5, CK2a2 (Homo sapiens, UniProt P19784)
T5 construct: purchased Reaction Biology Corporation (Kinase HotSpot)
Experimental: as §1

EPHA6 = target: T6, EPHA6 (Homo sapiens, UniProt Q9UF33)
T6 construct: purchased Reaction Biology Corporation (Kinase HotSpot)
Experimental: as §1

TTBK2 = target: T7, TTBK2 (Homo sapiens, UniProt Q6IQ55)
T7 construct: purchased Reaction Biology Corporation (Kinase HotSpot)
Experimental: as §1

MYLK4 = target: T8, MYLK4 (Homo sapiens, UniProt Q86YV6)
T8 construct: purchased Reaction Biology Corporation (Kinase HotSpot)
Experimental: as §1

DYRK3 = target: T9, DYRK3 (Homo sapiens, UniProt O43781)
T9 construct: purchased Reaction Biology Corporation (Kinase HotSpot)
Experimental: as §1

CAMK2g = target: T10, CAMK2g (Homo sapiens, UniProt Q13555)
T10 construct: purchased Reaction Biology Corporation (Kinase HotSpot)
Experimental: as §1

CTK/MATK = target: T11, CTK/MATK (Homo sapiens, UniProt P42679)
T11 construct: purchased Reaction Biology Corporation (Kinase HotSpot)
Experimental: as §1

VRK2 = target: T12, VRK2 (Homo sapiens, UniProt Q86Y07)
T12 construct: purchased Reaction Biology Corporation (Kinase HotSpot)
Experimental: as §1

MAPKAPK3 = target: T13, MAPKAPK3 (Homo sapiens, UniProt Q16644)
T13 construct: purchased Reaction Biology Corporation (Kinase HotSpot)
Experimental: as §1

NEK5 = target: T14, NEK5 (Homo sapiens, UniProt Q6P3R8)
T14 construct: purchased Reaction Biology Corporation (Kinase HotSpot)
Experimental: as §1

MARK4 = target: T15, MARK4 (Homo sapiens, UniProt Q96L34)
T15 construct: purchased Reaction Biology Corporation (Kinase HotSpot)
Experimental: as §1

EPHB4 = target: T16, EPHB4 (Homo sapiens, UniProt P54760)
T16 construct: purchased Reaction Biology Corporation (Kinase HotSpot)
Experimental: as §1

BLK = target: T17, BLK (Homo sapiens, UniProt P51451)
T17 construct: purchased Reaction Biology Corporation (Kinase HotSpot)
Experimental: as §1

MEK1 = target: T18, MEK1 (Homo sapiens, UniProt Q02750)
T18 construct: purchased Reaction Biology Corporation (Kinase HotSpot)
Experimental: as §1

STK32C/YANK3 = target: T19, STK32C/YANK3 (Homo sapiens, UniProt Q86UX6)
T19 construct: purchased Reaction Biology Corporation (Kinase HotSpot)
Experimental: as §1

MSK2/RPS6KA4 = target: T20, MSK2/RPS6KA4 (Homo sapiens, UniProt O75676)
T20 construct: purchased Reaction Biology Corporation (Kinase HotSpot)
T20 sequence (O75676 whole entry): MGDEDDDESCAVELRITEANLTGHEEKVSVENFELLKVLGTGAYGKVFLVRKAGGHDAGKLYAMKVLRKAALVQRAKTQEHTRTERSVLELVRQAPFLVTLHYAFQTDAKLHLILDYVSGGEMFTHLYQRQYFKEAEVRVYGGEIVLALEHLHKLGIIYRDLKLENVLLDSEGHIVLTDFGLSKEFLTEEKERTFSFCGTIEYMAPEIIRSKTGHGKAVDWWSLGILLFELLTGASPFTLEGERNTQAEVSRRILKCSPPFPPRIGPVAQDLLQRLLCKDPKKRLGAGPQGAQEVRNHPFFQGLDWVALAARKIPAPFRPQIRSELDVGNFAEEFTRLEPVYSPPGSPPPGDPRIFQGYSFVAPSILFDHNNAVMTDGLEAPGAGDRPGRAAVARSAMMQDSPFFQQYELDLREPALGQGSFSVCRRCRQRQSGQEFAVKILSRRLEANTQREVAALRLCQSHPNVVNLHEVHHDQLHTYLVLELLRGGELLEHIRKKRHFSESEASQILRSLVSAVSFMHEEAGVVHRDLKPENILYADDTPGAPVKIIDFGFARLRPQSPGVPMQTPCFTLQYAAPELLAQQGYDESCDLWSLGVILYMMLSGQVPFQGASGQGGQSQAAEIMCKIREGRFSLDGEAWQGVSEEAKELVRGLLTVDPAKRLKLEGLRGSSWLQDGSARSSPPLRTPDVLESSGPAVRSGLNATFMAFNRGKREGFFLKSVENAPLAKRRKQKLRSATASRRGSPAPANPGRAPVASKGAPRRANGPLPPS
Experimental: as §1

EPHB3 = target: T21, EPHB3 (Homo sapiens, UniProt P54753)
T21 construct: purchased Reaction Biology Corporation (Kinase HotSpot)
Experimental: as §1

ERK5/MAPK7 = target: T22, ERK5/MAPK7 (Homo sapiens, UniProt Q13164)
T22 construct: purchased Reaction Biology Corporation (Kinase HotSpot)
T22 sequence (Q13164 whole entry): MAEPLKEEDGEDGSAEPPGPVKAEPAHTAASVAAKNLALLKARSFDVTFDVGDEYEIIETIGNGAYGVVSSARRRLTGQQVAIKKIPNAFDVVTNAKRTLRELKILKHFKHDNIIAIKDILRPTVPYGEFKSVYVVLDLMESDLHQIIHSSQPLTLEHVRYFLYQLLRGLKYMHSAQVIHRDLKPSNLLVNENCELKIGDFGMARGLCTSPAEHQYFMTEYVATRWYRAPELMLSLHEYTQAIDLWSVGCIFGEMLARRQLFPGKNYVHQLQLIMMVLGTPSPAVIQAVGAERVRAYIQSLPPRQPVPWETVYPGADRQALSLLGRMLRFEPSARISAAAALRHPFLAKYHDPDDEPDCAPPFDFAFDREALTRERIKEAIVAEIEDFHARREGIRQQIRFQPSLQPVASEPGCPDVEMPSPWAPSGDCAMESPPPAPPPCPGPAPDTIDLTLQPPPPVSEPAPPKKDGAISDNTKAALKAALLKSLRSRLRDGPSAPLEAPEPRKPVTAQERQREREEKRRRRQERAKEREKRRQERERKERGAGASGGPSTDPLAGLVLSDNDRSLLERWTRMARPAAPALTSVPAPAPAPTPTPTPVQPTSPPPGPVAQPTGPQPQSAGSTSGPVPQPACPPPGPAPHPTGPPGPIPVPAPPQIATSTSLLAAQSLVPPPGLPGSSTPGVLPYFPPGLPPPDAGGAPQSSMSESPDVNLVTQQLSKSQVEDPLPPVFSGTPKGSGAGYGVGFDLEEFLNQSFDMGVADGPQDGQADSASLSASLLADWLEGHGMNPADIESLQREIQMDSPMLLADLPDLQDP
Experimental: as §1

MINK/MINK1 = target: T23, MINK/MINK1 (Homo sapiens, UniProt Q8N4C8)
T23 construct: purchased Reaction Biology Corporation (Kinase HotSpot)
Experimental: as §1

GRK7 = target: T24, GRK7 (Homo sapiens, UniProt Q8WTQ7)
T24 construct: purchased Reaction Biology Corporation (Kinase HotSpot)
T24 sequence (Q8WTQ7 whole entry): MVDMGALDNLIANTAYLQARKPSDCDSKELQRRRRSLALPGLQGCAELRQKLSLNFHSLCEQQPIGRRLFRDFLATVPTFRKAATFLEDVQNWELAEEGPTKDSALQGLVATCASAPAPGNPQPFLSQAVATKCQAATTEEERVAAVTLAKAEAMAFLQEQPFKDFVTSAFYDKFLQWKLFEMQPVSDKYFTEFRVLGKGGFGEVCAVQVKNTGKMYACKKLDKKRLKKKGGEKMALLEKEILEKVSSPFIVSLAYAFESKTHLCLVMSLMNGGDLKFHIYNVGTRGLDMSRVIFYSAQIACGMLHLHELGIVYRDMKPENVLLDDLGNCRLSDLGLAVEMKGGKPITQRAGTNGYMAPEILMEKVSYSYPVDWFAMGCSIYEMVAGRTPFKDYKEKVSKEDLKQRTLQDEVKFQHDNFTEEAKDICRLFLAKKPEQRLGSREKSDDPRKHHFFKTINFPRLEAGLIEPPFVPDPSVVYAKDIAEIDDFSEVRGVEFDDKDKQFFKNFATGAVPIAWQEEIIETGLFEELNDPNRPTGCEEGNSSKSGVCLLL
Experimental: as §1

GRK4 = target: T25, GRK4 (Homo sapiens, UniProt P32298)
T25 construct: purchased Reaction Biology Corporation (Kinase HotSpot)
T25 sequence (P32298 whole entry): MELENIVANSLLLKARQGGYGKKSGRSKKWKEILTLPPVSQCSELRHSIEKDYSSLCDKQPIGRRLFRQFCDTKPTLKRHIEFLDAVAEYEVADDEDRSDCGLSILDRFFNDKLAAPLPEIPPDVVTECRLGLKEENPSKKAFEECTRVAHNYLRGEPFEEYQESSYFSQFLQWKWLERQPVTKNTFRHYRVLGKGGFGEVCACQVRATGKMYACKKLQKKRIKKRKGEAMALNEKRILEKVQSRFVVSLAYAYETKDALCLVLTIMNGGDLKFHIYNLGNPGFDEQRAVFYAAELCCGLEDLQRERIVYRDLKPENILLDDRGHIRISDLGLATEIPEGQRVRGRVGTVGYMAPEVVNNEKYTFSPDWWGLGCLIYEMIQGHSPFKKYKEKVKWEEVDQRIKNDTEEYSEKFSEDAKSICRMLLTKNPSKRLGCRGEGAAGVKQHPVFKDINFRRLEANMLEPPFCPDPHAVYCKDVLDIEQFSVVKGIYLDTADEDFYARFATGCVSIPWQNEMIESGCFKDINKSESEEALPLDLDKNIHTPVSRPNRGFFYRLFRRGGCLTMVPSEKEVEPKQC
Experimental: as §1

HPK1/MAP4K1 = target: T26, HPK1/MAP4K1 (Homo sapiens, UniProt Q92918)
T26 construct: purchased Reaction Biology Corporation (Kinase HotSpot)
Experimental: as §1

TLK1 = target: T27, TLK1 (Homo sapiens, UniProt Q9UKI8)
T27 construct: purchased Reaction Biology Corporation (Kinase HotSpot)
Experimental: as §1

LKB1 = target: T28, LKB1 (Homo sapiens, UniProt Q15831)
T28 construct: purchased Reaction Biology Corporation (Kinase HotSpot)
Experimental: as §1

FLT4/VEGFR3 = target: T29, FLT4/VEGFR3 (Homo sapiens, UniProt P35916)
T29 construct: purchased Reaction Biology Corporation (Kinase HotSpot)
T29 sequence (P35916 25-1363): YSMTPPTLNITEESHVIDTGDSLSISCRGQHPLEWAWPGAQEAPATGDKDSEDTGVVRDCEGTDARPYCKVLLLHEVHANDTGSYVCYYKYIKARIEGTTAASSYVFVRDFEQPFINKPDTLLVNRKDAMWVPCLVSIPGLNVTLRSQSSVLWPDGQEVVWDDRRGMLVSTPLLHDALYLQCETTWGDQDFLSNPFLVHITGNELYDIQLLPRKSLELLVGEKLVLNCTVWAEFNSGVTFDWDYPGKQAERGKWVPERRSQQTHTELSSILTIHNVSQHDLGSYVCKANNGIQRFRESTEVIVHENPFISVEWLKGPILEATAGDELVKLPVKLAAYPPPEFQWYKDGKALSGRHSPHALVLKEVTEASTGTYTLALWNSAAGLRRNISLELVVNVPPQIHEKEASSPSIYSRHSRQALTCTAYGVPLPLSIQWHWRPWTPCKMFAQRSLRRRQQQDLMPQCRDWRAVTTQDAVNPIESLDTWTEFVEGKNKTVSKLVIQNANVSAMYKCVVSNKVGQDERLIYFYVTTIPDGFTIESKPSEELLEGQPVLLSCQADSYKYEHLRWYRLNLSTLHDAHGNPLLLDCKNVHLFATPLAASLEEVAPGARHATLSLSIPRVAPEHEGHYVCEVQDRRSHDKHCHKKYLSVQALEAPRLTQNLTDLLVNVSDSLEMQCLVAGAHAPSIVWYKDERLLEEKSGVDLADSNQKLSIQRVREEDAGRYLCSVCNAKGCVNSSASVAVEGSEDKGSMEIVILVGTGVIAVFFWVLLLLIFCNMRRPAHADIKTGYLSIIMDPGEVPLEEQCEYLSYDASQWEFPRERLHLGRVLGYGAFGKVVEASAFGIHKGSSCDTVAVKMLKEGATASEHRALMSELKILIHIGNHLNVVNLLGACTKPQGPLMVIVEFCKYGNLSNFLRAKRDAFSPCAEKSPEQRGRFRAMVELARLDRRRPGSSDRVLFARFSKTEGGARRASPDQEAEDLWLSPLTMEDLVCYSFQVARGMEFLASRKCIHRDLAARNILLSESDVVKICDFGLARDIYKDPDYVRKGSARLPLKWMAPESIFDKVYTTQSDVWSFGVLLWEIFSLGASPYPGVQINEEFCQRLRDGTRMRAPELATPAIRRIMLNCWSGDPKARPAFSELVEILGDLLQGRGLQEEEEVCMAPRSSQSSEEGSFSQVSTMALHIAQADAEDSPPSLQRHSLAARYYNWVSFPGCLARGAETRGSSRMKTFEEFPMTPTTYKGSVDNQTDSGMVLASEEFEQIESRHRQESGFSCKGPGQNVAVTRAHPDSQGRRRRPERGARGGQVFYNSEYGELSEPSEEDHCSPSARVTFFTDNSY
Experimental: as §1

TRKC = target: T30, TRKC (Homo sapiens, UniProt Q16288)
T30 construct: purchased Reaction Biology Corporation (contract assay)
Experimental: as §1

T1 sequence (Q96BR1 whole entry): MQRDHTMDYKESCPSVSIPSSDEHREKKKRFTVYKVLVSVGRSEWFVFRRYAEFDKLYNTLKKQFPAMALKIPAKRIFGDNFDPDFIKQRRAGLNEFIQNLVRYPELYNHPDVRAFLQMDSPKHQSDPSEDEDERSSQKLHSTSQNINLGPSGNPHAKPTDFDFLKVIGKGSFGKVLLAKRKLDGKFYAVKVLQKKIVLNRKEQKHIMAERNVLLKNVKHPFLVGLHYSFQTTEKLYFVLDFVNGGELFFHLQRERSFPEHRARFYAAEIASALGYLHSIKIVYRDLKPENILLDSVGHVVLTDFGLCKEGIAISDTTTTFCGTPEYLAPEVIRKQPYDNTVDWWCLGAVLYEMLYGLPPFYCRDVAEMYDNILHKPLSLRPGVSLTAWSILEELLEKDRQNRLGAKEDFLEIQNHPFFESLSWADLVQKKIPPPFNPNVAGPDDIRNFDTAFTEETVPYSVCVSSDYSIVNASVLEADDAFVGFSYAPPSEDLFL

Cc1cnc(N[C@H]2CC[C@H](N)CC2)nc1-c1cnc2ccc(-c3ccccc3)cn12 [CDDD11-8]
remaining activity at 1 µM (SGK3/SGKL): 115%
remaining activity at 1 µM (MST4): 92.9%
remaining activity at 1 µM (TYRO3/SKY): 82.2%
remaining activity at 1 µM (ITK): 87.5%
remaining activity at 1 µM (CK2a2): 74.7%
remaining activity at 1 µM (EPHA6): 88.4%
remaining activity at 1 µM (TTBK2): 93%
remaining activity at 1 µM (MYLK4): 11.5%
remaining activity at 1 µM (DYRK3): 23.2%
remaining activity at 1 µM (CAMK2g): 96.8%
remaining activity at 1 µM (CTK/MATK): 123%
remaining activity at 1 µM (VRK2): 35.7%
remaining activity at 1 µM (MAPKAPK3): 91.8%
remaining activity at 1 µM (NEK5): 28.7%
remaining activity at 1 µM (MARK4): 22.4%
remaining activity at 1 µM (EPHB4): 81%
remaining activity at 1 µM (BLK): 47.2%
remaining activity at 1 µM (MEK1): 98.9%
remaining activity at 1 µM (STK32C/YANK3): 91.1%
remaining activity at 1 µM (MSK2/RPS6KA4): 97.4%
remaining activity at 1 µM (EPHB3): 92.7%
remaining activity at 1 µM (ERK5/MAPK7): 93.3%
remaining activity at 1 µM (MINK/MINK1): 8.86%
remaining activity at 1 µM (GRK7): 70.7%
remaining activity at 1 µM (GRK4): 98.2%
remaining activity at 1 µM (HPK1/MAP4K1): 35.4%
remaining activity at 1 µM (TLK1): 110%
remaining activity at 1 µM (LKB1): 102%
remaining activity at 1 µM (FLT4/VEGFR3): 23.3%
remaining activity at 1 µM (TRKC): 1.95%
